Data reported in PubChem BioAssay (NCI).
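Abbreviation: GI50, concentration required for 50% inhibition of growth. TGI: total growth inhibition.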

How the values were obtained:
Assay in all cases: DTP human tumour cell line panel, 384-well format
HOP-92 NSCLC = system: HOP-92 NSCLC
NCI/ADR-RES ovarian = system: NCI/ADR-RES ovarian
SNB-75 CNS = system: SNB-75 CNS
SW-620 colon = system: SW-620 colon
IGROV1 ovarian = system: IGROV1 ovarian
ACHN renal = system: ACHN renal
NCI-H522 lung = system: NCI-H522 lung
NCI-H460 NSCLC = system: NCI-H460 NSCLC
HT29 colon = system: HT29 colon
M14 melanoma = system: M14 melanoma
MDA-MB-231 breast = system: MDA-MB-231 breast
UACC-62 melanoma = system: UACC-62 melanoma
K-562 leukemia = system: K-562 leukemia
COLO 205 colon = system: COLO 205 colon
NCI-H322M lung = system: NCI-H322M lung
U251 glioblastoma = system: U251 glioblastoma
HCT-116 colon = system: HCT-116 colon
SF-539 CNS = system: SF-539 CNS
CAKI-1 renal = system: CAKI-1 renal
SK-OV-3 ovarian = system: SK-OV-3 ovarian
HCT-15 colon = system: HCT-15 colon
HS 578T breast = system: HS 578T breast
MDA-MB-468 breast = system: MDA-MB-468 breast
KM12 colon = system: KM12 colon
HOP-62 NSCLC = system: HOP-62 NSCLC
SF-268 CNS = system: SF-268 CNS
UACC-257 melanoma = system: UACC-257 melanoma
MDA-MB-435 melanoma = system: MDA-MB-435 melanoma
OVCAR-4 ovarian = system: OVCAR-4 ovarian
EKVX NSCLC = system: EKVX NSCLC
SN12C renal = system: SN12C renal
BT-549 breast = system: BT-549 breast
MCF7 breast = system: MCF7 breast
PC-3 prostate = system: PC-3 prostate
TK-10 renal = system: TK-10 renal
RXF 393 renal = system: RXF 393 renal
A498 renal = system: A498 renal
SK-MEL-28 melanoma = system: SK-MEL-28 melanoma
OVCAR-3 ovarian = system: OVCAR-3 ovarian
786-0 renal = system: 786-0 renal
RPMI-8226 leukemia = system: RPMI-8226 leukemia
OVCAR-5 ovarian = system: OVCAR-5 ovarian
MOLT-4 leukemia = system: MOLT-4 leukemia
LOX IMVI melanoma = system: LOX IMVI melanoma
SF-295 CNS = system: SF-295 CNS
SK-MEL-5 melanoma = system: SK-MEL-5 melanoma
MALME-3M melanoma = system: MALME-3M melanoma
NCI-H23 lung = system: NCI-H23 lung
A549 NSCLC = system: A549 NSCLC
HL-60(TB) leukemia = system: HL-60(TB) leukemia
UO-31 renal = system: UO-31 renal
SNB-19 CNS = system: SNB-19 CNS
T-47D breast = system: T-47D breast
SK-MEL-2 melanoma = system: SK-MEL-2 melanoma
HCC-2998 colon = system: HCC-2998 colon
DU-145 prostate = system: DU-145 prostate
NCI-H226 lung = system: NCI-H226 lung
CCRF-CEM leukemia = system: CCRF-CEM leukemia
OVCAR-8 ovarian = system: OVCAR-8 ovarian

Question: With `CC[C@H](CC#N)OC(=O)N[C@@H](C)c1cccc(NC(=O)Nc2ccc(-c3cnco3)c(OC)c2)c1` as the compound, how does the GI50 (HOP-92 NSCLC) read?
Answer: 0.637 µM

Question: And the TGI (HOP-92 NSCLC)?
Answer: 22.7 µM

Question: And the GI50 (NCI/ADR-RES ovarian)?
Answer: 5.6 µM

Question: And the TGI (NCI/ADR-RES ovarian)?
Answer: 18 µM

Question: What about the GI50 (SNB-75 CNS) of the same compound?
Answer: 0.685 µM

Question: What about the TGI (SNB-75 CNS) of the same compound?
Answer: 14.3 µM

Question: What about the GI50 (SW-620 colon) of the same compound?
Answer: 0.0777 µM

Question: And the TGI (SW-620 colon)?
Answer: 12 µM

Question: And the GI50 (IGROV1 ovarian)?
Answer: 0.0607 µM

Question: What about the TGI (IGROV1 ovarian) of the same compound?
Answer: 10.6 µM

Question: What about the GI50 (ACHN renal) of the same compound?
Answer: 0.21 µM

Question: What about the TGI (ACHN renal) of the same compound?
Answer: 12.7 µM

Question: And the GI50 (NCI-H522 lung)?
Answer: 0.428 µM

Question: What about the TGI (NCI-H522 lung) of the same compound?
Answer: 11.9 µM

Question: What about the GI50 (NCI-H460 NSCLC) of the same compound?
Answer: 0.074 µM

Question: And the TGI (NCI-H460 NSCLC)?
Answer: 0.263 µM

Question: What about the GI50 (HT29 colon) of the same compound?
Answer: 0.137 µM

Question: And the TGI (HT29 colon)?
Answer: > 100 µM

Question: What about the GI50 (M14 melanoma) of the same compound?
Answer: 0.159 µM

Question: And the TGI (M14 melanoma)?
Answer: 1.14 µM

Question: What about the GI50 (MDA-MB-231 breast) of the same compound?
Answer: 0.3 µM

Question: What about the TGI (MDA-MB-231 breast) of the same compound?
Answer: 20.6 µM

Question: And the GI50 (UACC-62 melanoma)?
Answer: 0.236 µM

Question: And the TGI (UACC-62 melanoma)?
Answer: 10.6 µM

Question: What about the GI50 (K-562 leukemia) of the same compound?
Answer: 0.0484 µM

Question: What about the TGI (K-562 leukemia) of the same compound?
Answer: 11.2 µM

Question: What about the GI50 (COLO 205 colon) of the same compound?
Answer: 0.0463 µM

Question: And the TGI (COLO 205 colon)?
Answer: 13.1 µM

Question: What about the GI50 (NCI-H322M lung) of the same compound?
Answer: 0.275 µM

Question: And the TGI (NCI-H322M lung)?
Answer: 14.7 µM

Question: What about the GI50 (U251 glioblastoma) of the same compound?
Answer: 0.0455 µM

Question: What about the TGI (U251 glioblastoma) of the same compound?
Answer: 11.4 µM

Question: And the GI50 (HCT-116 colon)?
Answer: 0.075 µM

Question: And the TGI (HCT-116 colon)?
Answer: 10.6 µM

Question: What about the GI50 (SF-539 CNS) of the same compound?
Answer: 0.108 µM

Question: What about the TGI (SF-539 CNS) of the same compound?
Answer: 8.86 µM

Question: What about the GI50 (CAKI-1 renal) of the same compound?
Answer: 0.243 µM

Question: What about the TGI (CAKI-1 renal) of the same compound?
Answer: 11.9 µM

Question: And the GI50 (SK-OV-3 ovarian)?
Answer: 0.0574 µM

Question: And the TGI (SK-OV-3 ovarian)?
Answer: 0.898 µM

Question: And the GI50 (HCT-15 colon)?
Answer: 0.286 µM

Question: What about the TGI (HCT-15 colon) of the same compound?
Answer: 11.8 µM

Question: And the GI50 (HS 578T breast)?
Answer: 0.171 µM

Question: What about the TGI (HS 578T breast) of the same compound?
Answer: 1.54 µM

Question: And the GI50 (MDA-MB-468 breast)?
Answer: 0.14 µM

Question: What about the TGI (MDA-MB-468 breast) of the same compound?
Answer: 0.825 µM

Question: And the GI50 (KM12 colon)?
Answer: 0.168 µM

Question: What about the TGI (KM12 colon) of the same compound?
Answer: 12.4 µM

Question: What about the GI50 (HOP-62 NSCLC) of the same compound?
Answer: 0.258 µM

Question: And the TGI (HOP-62 NSCLC)?
Answer: 10.7 µM

Question: And the GI50 (SF-268 CNS)?
Answer: 0.244 µM

Question: What about the TGI (SF-268 CNS) of the same compound?
Answer: 11 µM

Question: What about the GI50 (UACC-257 melanoma) of the same compound?
Answer: 0.288 µM

Question: What about the TGI (UACC-257 melanoma) of the same compound?
Answer: 11.5 µM

Question: And the GI50 (MDA-MB-435 melanoma)?
Answer: 0.353 µM

Question: And the TGI (MDA-MB-435 melanoma)?
Answer: 14.6 µM

Question: What about the GI50 (OVCAR-4 ovarian) of the same compound?
Answer: 0.373 µM

Question: What about the TGI (OVCAR-4 ovarian) of the same compound?
Answer: 15.8 µM

Question: What about the GI50 (EKVX NSCLC) of the same compound?
Answer: 0.349 µM

Question: What about the TGI (EKVX NSCLC) of the same compound?
Answer: 12.3 µM

Question: What about the GI50 (SN12C renal) of the same compound?
Answer: 0.314 µM

Question: And the TGI (SN12C renal)?
Answer: 16.6 µM

Question: What about the GI50 (BT-549 breast) of the same compound?
Answer: 0.115 µM

Question: And the TGI (BT-549 breast)?
Answer: 0.951 µM

Question: What about the GI50 (MCF7 breast) of the same compound?
Answer: 0.159 µM

Question: What about the TGI (MCF7 breast) of the same compound?
Answer: 11.3 µM

Question: And the GI50 (PC-3 prostate)?
Answer: 0.178 µM

Question: And the TGI (PC-3 prostate)?
Answer: 10.9 µM

Question: And the GI50 (TK-10 renal)?
Answer: 0.416 µM

Question: What about the TGI (TK-10 renal) of the same compound?
Answer: 18.5 µM

Question: What about the GI50 (RXF 393 renal) of the same compound?
Answer: 0.168 µM

Question: What about the TGI (RXF 393 renal) of the same compound?
Answer: 0.66 µM

Question: What about the GI50 (A498 renal) of the same compound?
Answer: 0.0569 µM

Question: What about the TGI (A498 renal) of the same compound?
Answer: 1.72 µM

Question: And the GI50 (SK-MEL-28 melanoma)?
Answer: 0.126 µM

Question: And the TGI (SK-MEL-28 melanoma)?
Answer: 11 µM

Question: What about the GI50 (OVCAR-3 ovarian) of the same compound?
Answer: 0.0575 µM

Question: And the TGI (OVCAR-3 ovarian)?
Answer: 10.6 µM

Question: What about the GI50 ([…]-0 renal) of the same compound?
Answer: 0.154 µM

Question: And the TGI (786-0 renal)?
Answer: 1.87 µM

Question: What about the GI50 (RPMI-8226 leukemia) of the same compound?
Answer: 0.216 µM

Question: And the TGI (RPMI-8226 leukemia)?
Answer: 0.957 µM

Question: And the GI50 (OVCAR-5 ovarian)?
Answer: 0.27 µM

Question: And the TGI (OVCAR-5 ovarian)?
Answer: > 100 µM

Question: And the GI50 (MOLT-4 leukemia)?
Answer: 0.02 µM

Question: And the TGI (MOLT-4 leukemia)?
Answer: 0.0367 µM

Question: What about the GI50 (LOX IMVI melanoma) of the same compound?
Answer: 0.0689 µM

Question: What about the TGI (LOX IMVI melanoma) of the same compound?
Answer: 1.4 µM

Question: What about the GI50 (SF-295 CNS) of the same compound?
Answer: 0.316 µM

Question: And the TGI (SF-295 CNS)?
Answer: 12 µM

Question: And the GI50 (SK-MEL-5 melanoma)?
Answer: 0.0787 µM

Question: And the TGI (SK-MEL-5 melanoma)?
Answer: 0.348 µM

Question: What about the GI50 (MALME-3M melanoma) of the same compound?
Answer: 0.168 µM

Question: And the TGI (MALME-3M melanoma)?
Answer: 13.1 µM

Question: And the GI50 (NCI-H23 lung)?
Answer: 0.154 µM

Question: What about the TGI (NCI-H23 lung) of the same compound?
Answer: 0.664 µM

Question: What about the GI50 (A549 NSCLC) of the same compound?
Answer: 0.0657 µM

Question: What about the TGI (A549 NSCLC) of the same compound?
Answer: 1.68 µM

Question: What about the GI50 (HL-60(TB) leukemia) of the same compound?
Answer: 0.0539 µM

Question: What about the TGI (HL-60(TB) leukemia) of the same compound?
Answer: 0.22 µM

Question: And the GI50 (UO-31 renal)?
Answer: 0.354 µM

Question: What about the TGI (UO-31 renal) of the same compound?
Answer: 8.35 µM

Question: And the GI50 (SNB-19 CNS)?
Answer: 0.166 µM

Question: And the TGI (SNB-19 CNS)?
Answer: > 100 µM

Question: What about the GI50 (T-47D breast) of the same compound?
Answer: 0.486 µM

Question: And the TGI (T-47D breast)?
Answer: 10.6 µM

Question: And the GI50 (SK-MEL-2 melanoma)?
Answer: 0.506 µM

Question: What about the TGI (SK-MEL-2 melanoma) of the same compound?
Answer: 4.37 µM

Question: What about the GI50 (HCC-2998 colon) of the same compound?
Answer: 0.212 µM

Question: What about the TGI (HCC-2998 colon) of the same compound?
Answer: 1.45 µM

Question: What about the GI50 (DU-145 prostate) of the same compound?
Answer: 0.168 µM

Question: And the TGI (DU-145 prostate)?
Answer: 11 µM

Question: And the GI50 (NCI-H226 lung)?
Answer: 0.297 µM

Question: And the TGI (NCI-H226 lung)?
Answer: 10.5 µM

Question: And the GI50 (CCRF-CEM leukemia)?
Answer: 0.0649 µM

Question: What about the TGI (CCRF-CEM leukemia) of the same compound?
Answer: 0.248 µM

Question: And the GI50 (OVCAR-8 ovarian)?
Answer: 0.354 µM

Question: And the TGI (OVCAR-8 ovarian)?
Answer: 13.9 µM
